# Tested on: BRM-dependent transcription (BRG1 mutant lung cancer cell line A549)
# Experiment: BRM-dependent transcription, MMTV luciferase reporter in BRG1 mutant A549 cells
# Format: cell-based
# Settings: Table 11; for IC50: A549-MMTV luciferase reporter, dexamethasone induced, 6 hours; for Ratio (MDA-MMTV IC50 (μM) divided by A549-MMTV IC50 (μM)): MMTV luciferase reporter cell lines, selectivity BRG1/BRM
# Summary of the method: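 Compound dose series added to dexamethasone-stimulated A549 cells (BRG1 mutant) carrying a BRM-dependent mouse mammary tumor virus luciferase reporter; luminescence measured at 6 h post-stimulation.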
SMILES,"IC50 (Homo sapiens, A549, 6 h) [nM]",Ratio (MDA-MMTV IC50 (μM) divided by A549-MMTV IC50 (μM)),IC50 [nM]
Cc1cc(C(=O)NCc2cc3nc(N4CCOc5ccc(C(F)F)nc54)ccc3cn2)cc2c1OCC[C@H](F)S2(=O)=O [Compound 340],15.8,26.04,–
COc1cccc(-c2ccc3cnc(CNC(=O)c4cc(F)c5c(c4)S(=O)(=O)[C@@H](F)CCO5)cc3n2)n1 [Compound 333],15.4,31.11,–
O=C(NCc1cc2nc(-c3cccc(OC(F)F)n3)ccc2cn1)c1cc(C(F)F)c2c(c1)S(=O)(=O)[C@@H](F)COC2 [Compound 404],15.6,36.02,–
[2H]C1([2H])Oc2c(Cl)cc(C(=O)NCc3cc4nc(-c5ccc(OC(F)F)c(C6CC6)n5)ccc4cn3)cc2S(=O)(=O)[C@@H](F)C1([2H])[2H] [Compound 419],17.4,28.69,–
O=C(NCc1cc2nc(-c3ccnc(C4CC4)n3)ccc2cn1)c1cc(F)c2c(c1)S(=O)(=O)[C@@H](F)CCO2 [Compound 344],18.6,25.42,–
[2H]C1([2H])OC([2H])([2H])[C@H](F)S(=O)(=O)c2cc(C(=O)NCc3cc4nc(-c5cccc(OC(F)F)n5)ccc4cn3)cc(F)c21 [Compound 379],20,22.55,–
COc1nc([C@@](C)(F)C(F)F)ccc1-c1ccc2cnc(CNC(=O)c3cc(F)c4c(c3)S(=O)(=O)[C@@H](F)CCO4)cc2n1 [Compound 356],14.6,23.98,–
[2H]C([2H])([2H])C([2H])([2H])Oc1nc(C(C)(F)F)ccc1-c1ccc2cnc(CNC(=O)c3cc(Cl)c4c(c3)S(=O)(=O)[C@@H](F)COC4)cc2n1 [Compound 499],15,24.97,–
COCc1ccc(-c2ccc3cnc(CNC(=O)c4cc(F)c5c(c4)S(=O)(=O)[C@@H](F)CCO5)cc3n2)nc1C1CC1 [Compound 354],17.2,26.53,–
COc1nc(C(C)(F)F)ccc1-c1ccc2cnc(CNC(=O)c3cc(C(F)F)c4c(c3)S(=O)(=O)[C@@H](F)COC4)cc2n1 [Compound 467],17,24.85,–
O=C(NCc1cc2nc(-c3cccc(OC(F)(F)F)n3)ccc2cn1)c1cc(F)c2c(c1)S(=O)(=O)[C@@H](F)CCO2 [Compound 361],17.9,22.13,–
COCCOc1cnc2c(c1)CCCN2c1ccc2cnc(CNC(=O)c3cc(C(F)F)c4c(c3)S(=O)(=O)[C@@H](F)COC4)cc2n1 [Compound 439],13.3,27.20,–
CCOc1ccc(-c2ccc3cnc(CNC(=O)c4cc(C(F)F)c5c(c4)S(=O)(=O)[C@@H](F)COC5)cc3n2)nc1C1CC1(F)F (stereo partly drawn) [Compound 416],19.9,50.12,–
CCOc1nc(C(C)(F)F)ccc1-c1ccc2cnc(CNC(=O)c3cc(Cl)c4c(c3)S(=O)(=O)[C@@H](F)COC4)cc2n1 [Compound 445],21.2,22.07,–
O=C(NCc1cc2nc(-c3ccc(OC(F)F)c(C4CC4)n3)ccc2cn1)c1cc(Cl)c2c(c1)S(=O)(=O)[C@@H](F)CCO2 [Compound 355],13.1,23.10,–
COc1nc([C@@H](F)CF)ccc1-c1ccc2cnc(CNC(=O)c3cc(Br)c4c(c3)S(=O)(=O)[C@@H](F)COC4)cc2n1 [Compound 450],15.4,35.43,–
COc1nc(C(F)F)ccc1-c1ccc2cnc(CNC(=O)c3cc(Br)c4c(c3)S(=O)(=O)[C@@H](F)CCO4)cc2n1 [Compound 365],21.3,24.82,–
CCOc1nc([C@@H](C)F)ccc1-c1ccc2cnc(CNC(=O)c3cc(F)c4c(c3)S(=O)(=O)[C@@H](F)CCO4)cc2n1 [Compound 376],15.3,22.09,–
CN(C)c1nccc(-c2ccc3cnc(CNC(=O)c4cc(F)c5c(c4)S(=O)(=O)[C@@H](F)CCO5)cc3n2)n1 [Compound 349],13,34.91,–
O=C(NCc1cc2nc(-c3ccc([C@H](F)C(F)F)c(C4CC4)n3)ccc2cn1)c1cc(Cl)c2c(c1)S(=O)(=O)[C@@H](F)COC2 [Compound 491],18.2,23.59,–
O=C(NCc1cc2nc(-c3cccc(C4CC4)n3)ccc2cn1)c1cc(Br)c2c(c1)S(=O)(=O)[C@@H](F)COC2 [Compound 417],27.5,39.11,–
O=C(NCc1cc2nc(-c3cnc(OC(F)F)c(C4CC4)n3)ccc2cn1)c1cc(C(F)F)c2c(c1)S(=O)(=O)[C@@H](F)COC2 [Compound 465],22.6,55.20,–
"O=C(NCc1cc2nc(-c3ccc(C(F)F)nc3OCC3CC3)ccc2cn1)c1cc(F)c2c(c1)S(=O)(=O)[C@@H](F)CCO2 [Compound 332, (4R)—N-[[2-[2-(cyclopropylmethoxy)-6-(difluoromethyl)-3-pyridyl]-1,6-naphthyridin-7-yl]methyl]-4,9-difluoro-5,5-dioxo-3,4-dihydro-2H-1,5benzoxathiepine-7-carboxamide]",21,28.13,–
COc1ccc(-c2ccc3cnc(CNC(=O)c4cc(Br)c5c(c4)S(=O)(=O)[C@@H](F)COC5)cc3n2)nc1C1CC1 [Compound 487],13.4,53.94,–
Cc1ccc(-c2ccc3cnc(CNC(=O)c4cc(Cl)c5c(c4)S(=O)(=O)[C@@H](F)CCO5)cc3n2)c(OC(F)F)n1 [Compound 347],17.2,25.03,–
O=C(NCc1cc2nc(-n3cc(F)c(OC(F)F)n3)ccc2cn1)c1cc(F)c2c(c1)S(=O)(=O)[C@@H](F)COC2 [Compound 473],17.1,22.61,–
Cc1cc(C(=O)NCc2cc3nc(-c4ccc(C(F)F)c(C5CC5)n4)ccc3cn2)cc2c1OCC[C@H](F)S2(=O)=O [Compound 385],20.9,22.49,–
CC(C)c1ccc(-c2ccc3cnc(CNC(=O)c4cc(Br)c5c(c4)S(=O)(=O)[C@@H](F)CCO5)cc3n2)c(OC(F)F)n1 [Compound 402],21.7,26.98,–
[2H]C([2H])([2H])Oc1ccc(-c2ccc3cnc(CNC(=O)c4cc(Cl)c5c(c4)S(=O)(=O)[C@@H](F)COC5)cc3n2)nc1C1CC1(F)F (stereo partly drawn) [Compound 507],–,30.86,13.5

# Results, then the compound that gave them:
"IC50 (Homo sapiens, A549, 6 h) [nM]",Ratio (MDA-MMTV IC50 (μM) divided by A549-MMTV IC50 (μM)),IC50 [nM],SMILES
5.3,29.48,–,Cc1cc(C(=O)NCc2cc3nc(-c4ccc(C(F)F)c(C5CC5)n4)ccc3cn2)cc2c1COC[C@H](F)S2(=O)=O [Compound 397]
8.9,21.14,–,O=C(NCc1cc2nc(-c3ccc(C(F)F)c(N4CC(F)C4)n3)ccc2cn1)c1cc(F)c2c(c1)S(=O)(=O)[C@@H](F)CCO2 [Compound 441]
2.3,24.38,–,O=C(NCc1cc2nc(N3CCC(F)(F)c4cc(C5CC5)cnc43)ccc2cn1)c1cc(F)c2c(c1)S(=O)(=O)[C@@H](F)CCO2 [Compound 425]
3,17.70,–,COc1nc([C@](C)(F)C(F)F)ccc1-c1ccc2cnc(CNC(=O)c3cc(F)c4c(c3)S(=O)(=O)[C@@H](F)CCOC4)cc2n1 [Compound 367]
6.2,27.54,–,Cc1cc(C(=O)NCc2cc3nc(-c4ccc(OC(F)F)c(C5CC5)n4)ccc3cn2)cc2c1COC[C@H](F)S2(=O)=O [Compound 413]
3.2,26.77,–,C[C@H](F)c1ccc(-c2ccc3cnc(CNC(=O)c4cc(F)c5c(c4)S(=O)(=O)[C@@H](F)CCO5)cc3n2)c(OC(F)F)n1 [Compound 389]
8.5,25.83,–,O=C(NCc1cc2nc(-c3ccc(C(F)F)c(C4CC4)n3)ccc2cn1)c1cc(Br)c2c(c1)S(=O)(=O)[C@@H](F)COC2 [Compound 442]
6.4,29.60,–,[2H]C([2H])([2H])Oc1nc([C@H](C)F)ccc1-c1ccc2cnc(CNC(=O)c3cc(F)c4c(c3)S(=O)(=O)[C@@H](F)CCO4)cc2n1 [Compound 384]
9.6,38.00,–,[2H]C([2H])([2H])[C@@]([2H])(F)c1ccc(-c2ccc3cnc(CNC(=O)c4cc(Br)c5c(c4)S(=O)(=O)[C@@H](F)COC5)cc3n2)c(OC)n1 [Compound 502]
11.8,35.95,–,[2H]C([2H])([2H])C([2H])([2H])Oc1nc([C@@H](F)CF)ccc1-c1ccc2cnc(CNC(=O)c3cc(Br)c4c(c3)S(=O)(=O)[C@@H](F)COC4)cc2n1 [Compound 489]
7.4,52.71,–,CCOc1nccc2c1OCCN2c1ccc2cnc(CNC(=O)c3cc(Cl)c4c(c3)S(=O)(=O)[C@@H](F)COC4)cc2n1 [Compound 477]
9.5,31.77,–,CCOc1nc(C(F)F)ccc1-c1ccc2cnc(CNC(=O)c3cc(Cl)c4c(c3)S(=O)(=O)[C@@H](F)COC4)cc2n1 [Compound 431]
6.2,35.00,–,[2H]C([2H])([2H])C([2H])([2H])Oc1ccc(-c2ccc3cnc(CNC(=O)c4cc(F)c5c(c4)S(=O)(=O)[C@@H](F)COC5)cc3n2)nc1C1CC1(F)F (stereo partly drawn) [Compound 463]
